Measurements published in US9671406B2, “SPARC and methods of use thereof” (Abraxis BioScience, LLC, priority 2006, dated 2017).

System: gp60-mediated caveolar transcytosis
Assay: Inhibition of transport of paclitaxel from ABX across endothelial monolayers
Assay type: cell-based, human
Details: FIG. 4
Source text: Transport was dependent on albumin.

Compound	effect on transport of paclitaxel from ABX across endothelial monolayers
CCN1C(=O)C=CC1=O [NEM]	inhibited
β-methyl cyclodextrin [BMC]	inhibited
